Measured values taken from paper PMC10780633, “Novel Multi-Target Agents Based on the Privileged Structure of 4-Hydroxy-2-quinolinone” (Molecules, 2023).
Blank lines part the entries; values can stand above or below the compound they belong to.

How the values were obtained:
[1] = set-up: method as in PMID 16955399, PMID 26834836; details: more potent than linomide; cited from earlier work
[2] = Interaction with the stable free radical DPPH (reducing activity); details: 100 μM
Method: (§1) In this work, the carboxamides 3a–3u, the quinolinone–cinnamic or benzoic acid hybrids 11a–11g and the reverse amides 16a–16c were tested for their antioxidant activity via five in vitro techniques; (i) the interaction with the stable free radical 2,2-diphenyl-1-picrylhydrazyl (DPPH); (ii) the inhibition of lipid peroxidation; (iii) the hydroxyl radical scavenging ability; (iv) the 2,2-azino-bis(3-ethylbenzothiazoline-6-sulfonic acid (ABTS) radical cation (ABTS·^+) reduction; and (v) the superoxide anion radical scavenging ability.

[3] = Inhibition of lipid peroxidation of linoleic acid induced by AAPH radical; details: 100 μM
Method: as §1
The assay for the determination of the inhibition of linoleic acid peroxidation induced by the free radical initiator […](2-amidinopropane) dihydrochloride (AAPH) was performed according to the methods of Hadjipavlou-Litina et al., which we have also used in our previous works.

[4] = Competition with DMSO for hydroxyl radicals; details: 0.1 mM
Method: as §1
The assay was performed according to the methods of Pontiki et al. Trolox was used as a reference compound [78].

[5] = ABTS radical cation decolorization assay; details: 0.1 mM
Method: as §1
The experimental technique used in this section was performed according to the methods of Pontiki et al.. The results were compared to the appropriate standard inhibitor Trolox.

[6] = Non-enzymatic superoxide anion radical scavenging assay (PMS); details: 0.1 mM
Method: as §1
The experimental technique used for this assay was performed according to our previous works. Caffeic acid was used as an appropriate standard.

soybean lipoxygenase = molecular target: T1, soybean lipoxygenase (Glycine max, UniProt P08170); assay: Soybean LOX inhibition in vitro (UV absorbance-based assay); assay type: biochemical; details: 0.1 mM
T1 construct: purchased Sigma Chemical, Co. (St. Louis, MO, USA)
T1 sequence (P08170 1-839): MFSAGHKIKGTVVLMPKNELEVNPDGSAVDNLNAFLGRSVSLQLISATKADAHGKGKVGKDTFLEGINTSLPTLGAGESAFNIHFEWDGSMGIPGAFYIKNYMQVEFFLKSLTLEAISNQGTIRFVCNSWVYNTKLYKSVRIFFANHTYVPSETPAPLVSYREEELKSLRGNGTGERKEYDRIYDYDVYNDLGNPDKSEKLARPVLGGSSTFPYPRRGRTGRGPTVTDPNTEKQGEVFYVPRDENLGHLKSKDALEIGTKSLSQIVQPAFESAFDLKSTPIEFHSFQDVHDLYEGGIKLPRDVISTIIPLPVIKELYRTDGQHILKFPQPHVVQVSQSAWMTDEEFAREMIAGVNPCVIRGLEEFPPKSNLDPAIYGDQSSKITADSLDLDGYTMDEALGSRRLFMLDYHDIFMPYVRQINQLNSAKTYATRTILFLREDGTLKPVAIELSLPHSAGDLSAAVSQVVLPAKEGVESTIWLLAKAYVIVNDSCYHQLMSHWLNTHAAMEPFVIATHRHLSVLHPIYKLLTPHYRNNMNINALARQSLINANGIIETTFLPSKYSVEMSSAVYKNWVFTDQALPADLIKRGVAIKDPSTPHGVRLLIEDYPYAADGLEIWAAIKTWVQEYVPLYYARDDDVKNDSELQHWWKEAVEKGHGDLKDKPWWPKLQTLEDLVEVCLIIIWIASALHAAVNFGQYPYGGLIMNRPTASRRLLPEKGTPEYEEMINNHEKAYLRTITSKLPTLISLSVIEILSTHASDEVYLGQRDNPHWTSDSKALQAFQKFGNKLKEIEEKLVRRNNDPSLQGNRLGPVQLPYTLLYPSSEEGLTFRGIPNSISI
Method: For this study, the UV absorbance-based soybean LOX assay was used.
The assay for the determination of the inhibition of soybean LOX was performed according to the methods of Hadjipavlou-Litina et al., which we have also used in our previous works.

SMILES: COc1cccc2c1c(O)c(C(=O)N(C)c1ccc(C(F)(F)F)cc1)c(=O)n2C [Tasquinimod]
Anti-tumor potency relative to linomide [1]: 30–60 times

melting point: 161 °C
SMILES: CCn1c(=O)c(C(=O)NCCN)c(O)c2ccccc21 [Compound 7, N-(2-Aminoethyl)-1-ethyl-4-hydroxy-2-oxo-1,2-dihydroquinoline-3-carboxamide]

inhibition at 100 µM (soybean lipoxygenase): 45%
SMILES: CCCNC(=O)c1c(O)c2ccccc2n(-c2ccccc2)c1=O [Compound 3b, 4-hydroxy-2-oxo-1-phenyl-N-propyl-1,2-dihydroquinoline-3-carboxamide]
Interaction with the Free Radical DPPH (%) ([2]; 20 min): 2.7%
Interaction with the Free Radical DPPH (%) ([2]; 60 min): 11.8%
Inhibition of Lipid Peroxidation of Linoleic Acid Induced by AAPH Radical (%) [3]: 100%
OH% (hydroxyl radical scavenging) [4]: 40.8%
ABTS% (ABTS radical cation decolorization) [5]: 35.5%
PMS% (superoxide anion radical scavenging) [6]: 84.6%
